In patent publication US20160137639A1, “TRIAZOLE-ISOXAZOLE COMPOUND AND MEDICAL USE THEREOF” (JAPAN TOBACCO INC., priority 2012, published 2016):
Like-named read-outs stand apart in the source and are kept apart here.

Columns and labels:
[1] = biological target: T1, mouse RORγ (Mus musculus, UniProt P51450); test: Luciferase reporter gene assay of inhibitory effect against RORγ transcriptional activity (GAL4-mRORγ plasmid in CHO cells); type: cell-based
T1 construct: mouse, NM_011281.2 and from Ile251 to Lys516; expressed in transfected cells; host or cells: CHO cells (transient co-transfection with pG5-Luc reporter)
T1 sequence (P51450 251-516): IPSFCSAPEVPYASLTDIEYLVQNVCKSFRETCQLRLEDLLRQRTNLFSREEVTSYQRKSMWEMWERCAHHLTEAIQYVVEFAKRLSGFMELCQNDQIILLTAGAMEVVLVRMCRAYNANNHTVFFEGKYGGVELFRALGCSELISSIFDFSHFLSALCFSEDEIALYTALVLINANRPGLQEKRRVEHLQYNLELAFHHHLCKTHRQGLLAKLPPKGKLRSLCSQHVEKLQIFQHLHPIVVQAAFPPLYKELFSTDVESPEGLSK
Protocol: (§1) In vitro assay of inhibitory effect against RORγ transcriptional activity
(§2) Inhibitory effect of test article on transcriptional activity of RORγ was measured by means of the following luciferase reporter gene assay.
(§3) A cDNA encoding human and mouse RORγ ligand binding domain (LBD) were obtained based on the reported sequences (Genebank accession number and sequence: human, NM_005060.3 and from Ser253 to Lys518; mouse, NM_011281.2 and from Ile251 to Lys516).
(§4) The cDNA of human RORγ or mouse RORγ was inserted into pFA-CMV vector (Strategene), which expresses GAL4-DNA binding domain fusion protein.
(§5) The resulting plasmids are hereinafter referred to as GAL4-hRORγ plasmid and GAL4-mRORγ plasmid, respectively.
(§6) Human or mouse GAL4-RORγ plasmid was transiently co-transfected into Chinese hamster ovary cells (CHO cells) with […] plasmid, a reporter plasmid expressing firefly luciferase depending on GAL4.
(§7) TransIT CHO transfection reagent (Mirus) was used to co-transfect human or mouse GAL4-RORγ plasmid into CHO cells with pG5-Luc plasmid.
(§8) One day before the assay, CHO cells were suspended in HAM F-12 Nutrient medium containing 10 v/v % fetal bovine serum and seeded at 6×10^6 cells per 175 cm^2 cell culture flask.
(§9) Fifty four micro litters of Transit-CHO reagent was added into a 15 ml tube containing 1.16 ml of HAM F-12 Nutrient medium without fetal bovine serum and incubated at room temperature for 10 min.
(§10) The mixture was incubated at room temperature for 10 min.
(§11) Nine micro litters of CHO Mojo Reagent was then added into each tube and mixed gently. The mixture was incubated at room temperature for 10 min.
(§12) The resultant transfection reagent was applied to the cell culture.
(§13) After incubation at 37° C., 5% CO2 for 4 hr, the transfected CHO cells were harvested by a trypsin treatment.
(§14) The collected cells were resuspended in HAM F-12 Nutrient medium supplemented with 10 v/v % fetal bovine serum and plated into a 384-well-white plate at 8,000 cells/50 uL/well.
(§15) The plate was incubated at room temperature for 1 hour and then further incubated at 37° C., 5% CO2 for 3 hours.
(§16) The test articles were dissolved in dimethylsulfoxide (DMSO) to obtain a concentration of 10 mmol/L. The resulting solution was diluted with the medium just before use and added to the cells in the plate to prepare 8 different concentrations of the test article.
(§17) The final concentration of DMSO was 0.1 v/v % After the addition of the test articles, the cells were incubated at 37° C., 5% CO2 for 2 days.
(§18) RORγ transcriptional activity was detected as the intracellular luciferase activity using SteadyLite HTS Reporter Gene Assay System (Perkin Elmer).
(§19) StedyLite Reagent was diluted five-fold into a solution containing 10 mM Tricine, 0.2% w/v BSA, 0.02% v/v Tween-20 to obtain the luciferase substrate solution.
(§20) After the measurement of the cell viability using Resazurin, the culture media in the 384 well-plate were removed. Then the Luc substrate solution was added into each well.
(§21) After the incubation at room temperature for 10 minutes, luminescence of each well was measured by a microplate reader.
(§22) The luciferase activity derived from the luminescence count in the vehicle-control well treated with 0.1% DMSO alone was defined as 100%, and the luciferase activity in the test article was calculated as a percentage (%-of-control) based on the value of the vehicle-control.
(§23) EC50 value of test article was calculated by curve fitting with GraphPad Prism.
(§24) The luminescence counts at the concentration of the test article where the cytotoxicity was observed were excluded from the data analysis.

[2] = biological target: T2, human RORγ (Homo sapiens, UniProt P51449); test: Luciferase reporter gene assay of inhibitory effect against RORγ transcriptional activity (GAL4-hRORγ plasmid in CHO cells); type: cell-based
T2 construct: human, NM_005060.3 and from Ser253 to Lys518; expressed in transfected cells; host or cells: CHO cells (transient co-transfection with pG5-Luc reporter)
T2 sequence (P51449 253-518): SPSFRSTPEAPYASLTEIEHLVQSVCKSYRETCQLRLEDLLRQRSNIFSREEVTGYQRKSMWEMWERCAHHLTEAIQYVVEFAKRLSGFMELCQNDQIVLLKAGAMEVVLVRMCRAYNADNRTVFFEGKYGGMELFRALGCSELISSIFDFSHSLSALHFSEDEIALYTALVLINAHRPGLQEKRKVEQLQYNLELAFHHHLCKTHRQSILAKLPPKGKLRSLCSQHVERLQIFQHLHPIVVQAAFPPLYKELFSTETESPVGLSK
Protocol: as §1, §2, §3, §4, §5, §6, §7, §8, §9
A total 36 uL plasmid solution containing the GAL4-hRORγ plasmid (400 ng), pG5-Luc plasmid (9000 ng) and pcDNA3 plasmid (8600 ng) were added into the tube and mixed gently.
as §10, §11, §12, §13, §14, §15, §16, §17, §18, §19, §20, §21, §22, §23, §24

SMILES	EC50 ([1]; read-out: LUC EC50 (μM) mRORg) [µM]	EC50 ([2]; read-out: LUC EC50 (μM) hRORg) [µM]	further results
Cc1c(Cl)cccc1NC(=O)CCc1nnc(CCC2CCC(F)(F)CC2)n1C1CC1 [Example F-254]	< 3	< 3	–
Cc1ccc(NC(=O)[C@H]2CCCN(C)[C@@H]2c2nnc(CCC3CCCCC3)n2C2CC2)c(C)c1 [Example F-295]	< 3	< 3	–
Cc1ccc(NC(=O)[C@H]2CCCN[C@@H]2c2nnc(CCCC(C)(C)C)n2C2CC2)c(C)c1 [Example F-309]	< 3	< 3	–
Cc1ccc(NC(=O)C[C@H](CCC(=O)O)c2noc3c2C(C)CCC3CCC(C)C)c(Cl)c1 (single isomer, unassigned) [Example F-695]	–	–	EC50 ([1]; read-out: LUC EC50 mRORg): < 3 µM; EC50 ([2]; read-out: LUC EC50 hRORg): > 3 µM
CC(=O)N1C[C@@H](C(=O)Nc2ccc(C)cc2C)[C@H](c2nnc(-c3cc(CC(C)C)on3)n2C2CC2)C1 [Example F-409]	> 3	> 3	–
CCc1ccccc1NC(=O)CCc1nnc(CCC(C)C)n1C1CC1 [Example F-72]	> 3	> 3	–
COc1c(CNC(=O)CCc2nnc(CCC(C)C)n2C2CC2)ccc(C)c1C [Example F-262]	> 3	> 3	–
CCn1c(CCC(=O)NC2CCCc3ccccc32)nnc1C1Cc2ccccc2C1 (stereo not drawn) [Example F-10]	–	–	EC50 ([1]; LUC EC50 (μM) mRORg): > 3 µM; EC50 ([2]; LUC EC50 (μM) hRORg): > 3 µM
Cc1c(Cl)cccc1NC(=O)CC(CCN1C(=O)c2ccccc2C1=O)c1nnc(CCCC(C)C)n1C1CC1 (racemic) [Example F-224]	< 3	< 3	–
Cc1ccc(NC(=O)[C@H]2CN(CC(=O)N(C)C)C[C@@H]2c2nnc([C@H]3C[C@@H](CC(C)(C)C)C3)n2C2CC2)c(C)c1 [Example F-652]	–	–	EC50 ([1]; read-out: LUC EC50 mRORg): < 3 µM; EC50 ([2]; read-out: LUC EC50 hRORg): < 3 µM
CC1(c2cc(-c3onc([C@@H](CCC(=O)O)CC(=O)Nc4ccc(F)cc4Cl)c3C3CC3)no2)CCCC1 [Example E-72]	< 3	< 3	–
CC(=O)N1CC[C@H](C(=O)Nc2ccc(C)cc2C)[C@H]1c1nnc(CCCC(C)(C)C)n1C1CC1 [Example F-296]	< 3	< 3	–
Cc1c(Br)cccc1NC(=O)CCc1nnc(CCC(C)C)n1C1CC1 [Example F-84]	< 3	< 3	–
Cc1ccc(NC(=O)C[C@H](CCC(=O)O)c2onc([C@H]3C[C@@H](CC(C)(C)C)C3)c2C2CC2)c(Cl)c1 [Example F-715, (S)-5-(2-Chloro-4-methyl-phenylcarbamoyl)-4-{4-cyclopropyl-3-[3-(2,2-dimethyl-propyl)-cyclobutyl]-isoxazol-5-yl}-pentanoic acid]	–	–	EC50 ([1]; read-out: LUC EC50 mRORg): < 3 µM; EC50 ([2]; read-out: LUC EC50 hRORg): < 3 µM
CCn1c(CCC(=O)Nc2cccc3c2CCCC3)nnc1C1Cc2ccccc2C1 [Example F-7]	< 3	> 3	–
Cc1cc(NC(=O)C[C@H](CC(=O)O)c2noc([C@H]3C[C@@H](CC(C)C)C3)c2C2CC2)n(C)n1 [Example F-669]	–	–	EC50 ([1]; read-out: LUC EC50 mRORg): < 3 µM; EC50 ([2]; read-out: LUC EC50 hRORg): > 3 µM
Cc1c(Cl)cccc1NC(=O)CCc1nnc(CCC(C)C)n1C1CC1 [Example F-55]	< 3	> 3	–
CC(C)(C)Cc1cc(-c2onc([C@@H](CCC(=O)O)CC(=O)Nc3ccc(Cl)cc3Cl)c2C2CC2)no1 [Example E-78]	–	–	EC50 ([1]; read-out: LUC EC50 mRORg): < 3 µM; EC50 ([2]; read-out: LUC EC50 hRORg): < 3 µM
